“Also recorded” adds a separate entry of the source.
System: S. aureus N315 (MRSA N315)
Test: Disk / agar diffusion bioactivity test (zone of inhibition) against S. aureus N315
Type: cell-based, Staphylococcus aureus
Settings: clavu7 extract compounds/fractions, 25-30 μL on 6 mm filter disks on N315 lawn on TSA, 16-20 hours at 30° C.
Procedure: The two compounds were separated from one another by re-injecting the 11 to 11.5 minute fraction into the LC-MS system using an isocratic mobile phase of 30% methanol in water. Once separated, the two compounds were collected, concentrated by evaporating the solvent to a total volume of approximately 50 μL, and tested against S. aureus N315 to definitively determine which one is bioactive. This turned out to be m/z=215, which was identified as holomycin. Bioactivity testing is carried out by first spreading approximately 150 μL of an OD600˜0.01 S. aureus N315 culture in TSB onto a TSA plate to create a lawn of S. aureus N315. Next, 25-30 μL of each sample is deposited onto 6 mm sterile filter disks. The disks are allowed to dry and then placed onto the S. aureus N315 lawn. This plate is incubated for 16-20 hours at 30° C., after which it was examined for the appearance of a zone of inhibition around the disks.
The methanol sample was then concentrated further using a vacuum centrifuge (speed-vac or speed-yap) until approximately 100 μL remained. A 25 μL aliquot was then used to test for bioactivity against MRSA N315. This aliquot, which has not yet been fractionated on an HPLC system, is called a “crude extract.” About 40-50 μL of the concentrated sample was also injected into an HPLC-MS system. […]

CC(=O)Nc1c2sscc-2[nH]c1=O [holomycin]
bioactivity against S. aureus N315 (zone of inhibition around disks): inhibits growth; also recorded: bioactive | bioactivity against S. aureus N315 (zone of inhibition around disks) (listed as m/z=215 compound): bioactive

From patent US9080199B2, “Method to generate novel bioactive molecules” (priority 2010, dated 2015)
